How the values were obtained:
[1] = test system: ICR female mice; assay: Acute toxicity (single oral administration); format: in vivo
Experimental: Acute toxicity was evaluated in this Example. As a compound to be examined, 2-ethoxy-1-[[4'-(2"-N,N-dimethylamino-ethoxycarbonyl)phenyl]methyl]-1H-benzimidazole-6-carboxylic acid morpholide (Compound No. 13) prepared in Example 6 was used.
Five-week-old ICR female mice (5 mice per group) were bredfor acclimation for a week. Then, Compound No. 13 was dissolved or suspended in 0.5% methylcellulose aqueous solution, and orally administered to the mice in a single dosage (500 mg/kg). […] Further, as to Compound No. 55, Compound No. 57, Compound No. 59, and Compound No. 65 prepared in Examples 26, 28, 31, and 23, respectively, acute toxicity was also evaluated.

[2] = target: T1, angiotensin II receptor subtype 1 (AT1) (Oryctolagus cuniculus, UniProt P34976); assay: Binding assay, angiotensin II receptor subtype 1 (AT1); set-up: species or system rabbits
T1 construct: from adrenal glands in rabbits; from tissue; host or cells: adrenal glands of rabbits
T1 sequence (P34976 1-359): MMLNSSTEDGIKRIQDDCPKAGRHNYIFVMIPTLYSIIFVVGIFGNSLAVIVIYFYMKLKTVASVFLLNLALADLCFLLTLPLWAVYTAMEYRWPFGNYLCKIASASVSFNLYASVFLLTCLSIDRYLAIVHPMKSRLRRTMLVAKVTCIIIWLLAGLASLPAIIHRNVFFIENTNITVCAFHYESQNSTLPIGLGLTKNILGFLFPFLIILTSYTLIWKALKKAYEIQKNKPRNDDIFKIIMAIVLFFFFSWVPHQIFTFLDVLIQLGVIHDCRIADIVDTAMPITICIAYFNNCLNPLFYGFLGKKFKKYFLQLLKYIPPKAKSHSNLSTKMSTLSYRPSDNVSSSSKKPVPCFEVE
Experimental: In this Example, a binding assay was carried out. That is, the affinity to the angiotensin II receptor subtype 1 orsubtype 2 was evaluated in accordance with the method described in Biochem. Pharmacol., 33, 4057-4062 (1984).
Specifically, the measurement of the total binding in the presence of each drug was performed as follows:
A mixture (final volume=0.25 ml) of a drug in a given concentration (the drug was dissolved in DMSO, and diluted to a double volume with a buffer attached to a drug discovery system to prepare a sample for the assay; 0.025 ml), a tracer (0.025 ml), and receptors (0.2 ml) was incubated [in the case of the angiotensin II receptor subtype 1 (AT1), at room temperature for 3 hours, and in the case of the subtype 2 (AT2), at 37° C. for 1 hour]. Then, the reaction mixture was filtered with suction (a GF/C filter was used in AT1, and a GF/B filter was used in AT2). The filter papers after filtration with suction (the tracer bound to the receptors) were counted by a γ-well counter (ARC-500, Aloka). The non-specific bindings were measured by repeating the above method, except that a large excess amount of a displacer was added. The specific binding of the drug in the given concentration was calculated by subtracting the non-specific binding from the total binding, respectively.
tracer: ^3 H-angiotensin II

[3] = test system: kidney disease model rats; assay: Action to lower blood pressure in kidney disease model rats; format: in vivo, Sprague-Dawley female rats; conditions: 20 mg/kg oral; for action of lowering the blood pressure: in comparison with the control group; for Blood pressure: systolic, tail cuff, average, two days after administration, control 210
Experimental: (§1) In this Example, an action to lower blood pressure was evaluated. That is, each of 2-ethoxy-1-[[4'- (2'-N,N-dimethylamino-ethoxycarbonyl) phenyl]methyl]-1H-benzimidazole-6-carboxylic acid morpholide (Compound No. 13) prepared in Example 6, 2-ethoxy-1-[[4'-(2"-morpholinoethoxycarbonyl)-phenyl]methyl]-1H-benzimidazole-6-carboxylic acid piperidinamide (Compound No. 57) prepared in Example 28, or the reference substance was forcibly orally administered to kidney disease model rats, and the action of lowering the blood pressure was observed. The kidney disease model rats were prepared by a ligature of branches of renal artery in accordance with a conventional method. Namely, the left hilum renalis of Sprague-Dawley female rats was exposed under anesthesia, and one of four secondary branches of the renal artery was left unligated, while the remaining three branches were ligated, respectively. After a week, the hilum renalis (artery, vein, and ureter) of the right kidney were further ligated to thereby prepare rats whose renal function was lowered to approximately 1/8 of the normal function. Each group consisted of eight rats. The drugs to be tested (20 mg/kg) were administered to each administering group, and only water was administered to a control group. Two days after the administration, the systolic blood pressure was measured by the tail cuff method using a blood pressure measuring apparatus (UR^5000; Ueda).

[4] = test system: kidney disease model rats; assay: Survival time of kidney diseased animals; format: in vivo, Sprague-Dawley female rats; conditions: for survival time / Average survival time: 20 mg/kg/day; for Average survival time: observation period eight weeks (upper limit), control 5.0; for effect on survival compared with reference substance: vs DuP753
Experimental: as §1
In this Example, an action to survival time of kidney diseased animals was evaluated. As compounds to be examined, 2-ethoxy-1-[[4'-(2"-N,N-dimethylamino-ethoxycarbonyl)-phenyl]methyl]-1H-benzimidazole-6-carboxylic acid morpholide (Compound No. 13) prepared in Example 6, and 2-ethoxy-1-[[4'-(2"-morpholinoethoxycarbonyl)phenyl]methyl]-1H-benzimidazole-6-carboxylic acid piperidinamide (Compound No. 57) prepared in Example 28 were used.
The kidney disease model rats were prepared as in Example 38. Fifteen groups (8 rats per group) were prepared in a manner such that there was no major difference between the groups in the serum creatinine value and the blood urea nitrogen value indicating renal function. The rats in each group were allowed to freely take up food and water. […] To the rats in the control group, only water was forcibly orally administered every day. If kidney diseases are aggravated, the rat will die of uremia. Thus, the survival time was observed as a comprehensive indication of the improvement of the effect on the kidney diseases. The observation period was eight weeks. Thus if all rats survived, the average survival time is eight weeks, and is an upper limit.

Row | SMILES | Number of deaths/number of survivals ([1]; 500 mg/kg single oral, deaths observed for 6 days) | inhibitory effect / binding activity / antagonism at angiotensin II receptor [2] | action of lowering the blood pressure [3] | Blood pressure [3] | survival time [4] | Average survival time [4] | effect on survival compared with reference substance [4] | Number of deaths/number of survivals ([1]; mouse, in vivo)
1 | CCOc1nc2ccc(C(=O)N3CCOCC3)cc2n1Cc1ccc(C(=O)OCCN(C)C)cc1 [Compound No. 13, 2-ethoxy-1-[[4'-(2"-N,N-dimethylaminoethoxycarbonyl)phenyl]methyl]-1H-benzimidazole-6-carboxylic acid morpholide] | 0/5 | do not substantially exhibit a conventional angiotensin II receptor antagonism | an influence on the blood pressure was not substantially observed | 208 mmHg | clearly prolonged the survival time | 7.5 weeks | comparable or superior to that of the reference substance | 
2 | CCOc1nc2ccc(C(=O)N3CCCCC3)cc2n1Cc1ccc(C(=O)OCCN2CCOCC2)cc1 [Compound No. 57, 2-ethoxy-1-[[4'-(2"-morpholinoethoxycarbonyl)phenyl]methyl]-1H-benzimidazole-6-carboxylic acid piperidinamide] |  | do not substantially exhibit a conventional angiotensin II receptor antagonism | an influence on the blood pressure was not substantially observed | 205 mmHg | clearly prolonged the survival time | 7.5 weeks | comparable or superior to that of the reference substance | 0/5

— US6242445A, “Benzimidazole derivative” (Kureha Chemical Industry Co., Ltd., priority 1998, dated 2001)
